Source: PubChem BioAssay AID1259407 (Chemical Carcinogenesis Research Information System (CCRIS), 2018)
Calls of active or inactive are those of the source. The rule behind the calls is not given here.

Test system: CCRIS mutagenicity, Ames/micronucleus/aberration tests
Experiment: CCRIS mutagenicity studies
[1] = Test System: AMES SALMONELLA TYPHIMURIUM, Strain/Indicator: TA100, Metabolic Activation: NONE, Method: PREINCUBATION
[2] = Test System: AMES SALMONELLA TYPHIMURIUM, Strain/Indicator: TA100, Metabolic Activation: NONE, Method: STANDARD PLATE
[3] = Test System: AMES SALMONELLA TYPHIMURIUM, Strain/Indicator: TA98, Metabolic Activation: RAT, LIVER, S-9, Method: STANDARD PLATE

For `CBr`, the mutagenic call (Test System: AMES SALMONELLA TYPHIMURIUM, Strain/Indicator: TA98, Metabolic Activation: HAMSTER, LIVER, S-9, AROCLOR 1254 (30%), Method: DESICCATOR) was “inactive; negative”, the mutagenic call (Test System: AMES SALMONELLA TYPHIMURIUM, Strain/Indicator: TA98, Metabolic Activation: NONE, Method: DESICCATOR) was “inactive; negative” and the mutagenic call (Test System: AMES SALMONELLA TYPHIMURIUM, Strain/Indicator: TA98, Metabolic Activation: NONE, Method: GAS EXPOSURE) was “inactive; negative”. The mutagenic call (Test System: AMES SALMONELLA TYPHIMURIUM, Strain/Indicator: TA98, Metabolic Activation: RAT, LIVER, S-9, AROCLOR 1254 (30%), Method: DESICCATOR) was “inactive; negative”, the mutagenic call (Test System: AMES SALMONELLA TYPHIMURIUM, Strain/Indicator: TA98, Metabolic Activation: RAT, LIVER, S-9, SODIUM PHENOBARBITAL AND 5,6-BENZOFLAVONE, Method: GAS EXPOSURE) was “inactive; negative” and the mutagenic call (Test System: AMES SALMONELLA TYPHIMURIUM, Strain/Indicator: TA100, Metabolic Activation: HAMSTER, LIVER, S-9, AROCLOR 1254 (30%), Method: DESICCATOR) was “active; positive”. The mutagenic call (Test System: AMES SALMONELLA TYPHIMURIUM, Strain/Indicator: TA100, Metabolic Activation: NONE, Method: DESICCATOR) was “active; positive”, the mutagenic call (Test System: AMES SALMONELLA TYPHIMURIUM, Strain/Indicator: TA100, Metabolic Activation: NONE, Method: GAS EXPOSURE) was “active; positive” and the mutagenic call [1] was “active; positive”. For the same compound, the mutagenic call [2] was “active; positive”, the mutagenic call (Test System: AMES SALMONELLA TYPHIMURIUM, Strain/Indicator: TA100, Metabolic Activation: RAT, LIVER, S-9, AROCLOR 1254 (30%), Method: DESICCATOR) was “active; positive” and the mutagenic call (Test System: AMES SALMONELLA TYPHIMURIUM, Strain/Indicator: TA100, Metabolic Activation: RAT, LIVER, S-9, AROCLOR 1254, Method: PREINCUBATION) was “active; positive”. The mutagenic call (Test System: AMES SALMONELLA TYPHIMURIUM, Strain/Indicator: TA100, Metabolic Activation: RAT, LIVER, S-9, AROCLOR 1254, Method: STANDARD PLATE) was “active; positive”, the mutagenic call (Test System: AMES SALMONELLA TYPHIMURIUM, Strain/Indicator: TA100, Metabolic Activation: RAT, LIVER, S-9, SODIUM PHENOBARBITAL AND 5,6-BENZOFLAVONE, Method: GAS EXPOSURE) was “active; positive” and the mutagenic call (Test System: AMES SALMONELLA TYPHIMURIUM, Strain/Indicator: TA1535, Metabolic Activation: NONE, Method: GAS EXPOSURE) was “active; positive”. The mutagenic call (Test System: AMES SALMONELLA TYPHIMURIUM, Strain/Indicator: TA1535, Metabolic Activation: RAT, LIVER, S-9, SODIUM PHENOBARBITAL AND 5,6-BENZOFLAVONE, Method: GAS EXPOSURE) was “active; positive”, the mutagenic call (Test System: AMES SALMONELLA TYPHIMURIUM, Strain/Indicator: TA1537, Metabolic Activation: NONE, Method: GAS EXPOSURE) was “inactive; negative” and the mutagenic call (Test System: AMES SALMONELLA TYPHIMURIUM, Strain/Indicator: TA1537, Metabolic Activation: RAT, LIVER, S-9, SODIUM PHENOBARBITAL AND 5,6-BENZOFLAVONE, Method: GAS EXPOSURE) was “inactive; negative”. For the same compound, the mutagenic call (Test System: E. COLI, Strain/Indicator: WP2UVRA, Metabolic Activation: NONE, Method: GAS EXPOSURE) was “active; positive” and the mutagenic call (Test System: E. COLI, Strain/Indicator: WP2UVRA, Metabolic Activation: RAT, LIVER, S-9, SODIUM PHENOBARBITAL AND 5,6-BENZOFLAVONE, Method: GAS EXPOSURE) was “active; positive”.
With `Cc1cc(C)c(N)c(C)c1N` the mutagenic call (Test System: AMES SALMONELLA TYPHIMURIUM, Strain/Indicator: TA97, Metabolic Activation: NONE, Method: STANDARD PLATE) was “inactive; negative”, the mutagenic call (Test System: AMES SALMONELLA TYPHIMURIUM, Strain/Indicator: TA97, Metabolic Activation: RAT, LIVER, S-9, Method: STANDARD PLATE) was “active; positive” and the mutagenic call (Test System: AMES SALMONELLA TYPHIMURIUM, Strain/Indicator: TA98, Metabolic Activation: NONE, Method: STANDARD PLATE) was “inactive; negative”. For the same compound, the mutagenic call [3] was “active; positive”, the mutagenic call [2] was “active; positive” and the mutagenic call (Test System: AMES SALMONELLA TYPHIMURIUM, Strain/Indicator: TA100, Metabolic Activation: RAT, LIVER, S-9, Method: STANDARD PLATE) was “active; positive”. For the same compound, the mutagenic call (Test System: AMES SALMONELLA TYPHIMURIUM, Strain/Indicator: TA1535, Metabolic Activation: NONE, Method: STANDARD PLATE) was “active; positive” and the mutagenic call (Test System: AMES SALMONELLA TYPHIMURIUM, Strain/Indicator: TA1535, Metabolic Activation: RAT, LIVER, S-9, Method: STANDARD PLATE) was “active; positive”.
`CC(Br)(CBr)COP(=O)(OCC(C)(Br)CBr)OCC(C)(Br)CBr` (stereo unspecified) was tested, and the mutagenic call (Test System: AMES SALMONELLA TYPHIMURIUM, Strain/Indicator: TA100, Metabolic Activation: RAT, LIVER, MICROSOMES, PHENOBARBITAL, Method: PREINCUBATION) was “inactive; negative” and the mutagenic call (Test System: AMES SALMONELLA TYPHIMURIUM, Strain/Indicator: TA100, Metabolic Activation: RAT, LIVER, MICROSOMES, Method: PREINCUBATION) was “inactive; negative”.
For `OCCN1CCN(CCCN2c3ccccc3Sc3ccc(C(F)(F)F)cc32)CC1`, the mutagenic call (Test System: AMES SALMONELLA TYPHIMURIUM, Strain/Indicator: TA98, Metabolic Activation: NONE) was “inactive; negative”, the mutagenic call (Test System: AMES SALMONELLA TYPHIMURIUM, Strain/Indicator: TA98, Metabolic Activation: RAT, LIVER, S-9, PHENOBARBITAL AND 5,6-BENZOFLAVONE) was “inactive; negative” and the mutagenic call (Test System: AMES SALMONELLA TYPHIMURIUM, Strain/Indicator: TA100, Metabolic Activation: NONE) was “inactive; negative”. For the same compound, the mutagenic call (Test System: AMES SALMONELLA TYPHIMURIUM, Strain/Indicator: TA100, Metabolic Activation: RAT, LIVER, S-9, PHENOBARBITAL AND 5,6-BENZOFLAVONE) was “inactive; negative”, the mutagenic call (Test System: AMES SALMONELLA TYPHIMURIUM, Strain/Indicator: TA1535, Metabolic Activation: NONE) was “inactive; negative” and the mutagenic call (Test System: AMES SALMONELLA TYPHIMURIUM, Strain/Indicator: TA1535, Metabolic Activation: RAT, LIVER, S-9, PHENOBARBITAL AND 5,6-BENZOFLAVONE) was “inactive; negative”. For the same compound, the mutagenic call (Test System: AMES SALMONELLA TYPHIMURIUM, Strain/Indicator: TA1537, Metabolic Activation: NONE) was “inactive; negative”, the mutagenic call (Test System: AMES SALMONELLA TYPHIMURIUM, Strain/Indicator: TA1537, Metabolic Activation: RAT, LIVER, S-9, PHENOBARBITAL AND 5,6-BENZOFLAVONE) was “inactive; negative” and the mutagenic call (Test System: E. COLI, Strain/Indicator: WP2 UVRA, Metabolic Activation: NONE) was “inactive; negative”. The mutagenic call (Test System: E. COLI, Strain/Indicator: WP2 UVRA, Metabolic Activation: RAT, LIVER, S-9, PHENOBARBITAL AND 5,6-BENZOFLAVONE) was “inactive; negative”.
In the case of `C=CCN(CC=C)C1c2ccccc2-c2ccccc2C1N1C2c3ccccc3-c3ccccc3C21` (stereo unspecified), the mutagenic call [2] is reported as “inactive; negative”.
In the case of `CCOC(=O)/C=C/c1ccc([N+](=O)[O-])o1`, the mutagenic call (Test System: AMES SALMONELLA TYPHIMURIUM, Strain/Indicator: TA98, Metabolic Activation: NONE, Method: PREINCUBATION) is reported as “active; positive”.
For `COc1cc2c(c3oc(=O)c4c(c13)CCOC4=O)[C@@H]1C=CO[C@@H]1O2`, the mutagenic call (Test System: AMES SALMONELLA TYPHIMURIUM, Strain/Indicator: TA98, Metabolic Activation: RAT, LIVER, MICROSOMES, PHENOBARBITAL, Method: STANDARD PLATE) was “active; positive”, the mutagenic call (Test System: AMES SALMONELLA TYPHIMURIUM, Strain/Indicator: TA98, Metabolic Activation: RAT, LIVER, S-9, PHENOBARBITAL, Method: STANDARD PLATE) was “active; positive” and the mutagenic call [1] was “active; positive”. The mutagenic call (Test System: AMES SALMONELLA TYPHIMURIUM, Strain/Indicator: TA100, Metabolic Activation: RAT, LIVER, MICROSOMES, PHENOBARBITAL, Method: STANDARD PLATE) was “active; positive”, the mutagenic call (Test System: AMES SALMONELLA TYPHIMURIUM, Strain/Indicator: TA100, Metabolic Activation: RAT, LIVER, S-9, PHENOBARBITAL, Method: PREINCUBATION) was “active; positive” and the mutagenic call (Test System: UDS HUMAN FIBROBLASTS, Strain/Indicator: THY INCORP (NON-S-PHASE), Metabolic Activation: MOUSE, LIVER, S-9, Method: AUTORADIOGRAPHY) was “active; positive”. The mutagenic call (Test System: UDS RODENT HEPATOCYTES, Strain/Indicator: THY INCORP (NON-S-PHASE), Method: AUTORADIOGRAPHY) was “active; positive”.
`CNC(=O)ON(C(C)=O)C(=O)NC` was tested, and the mutagenic call [3] was “active; positive” and the mutagenic call [2] was “inactive; negative”.
